Laboratory results reported in patent US8012972B2, “Pyridinecarboxylic acid (2-aminophenyl) amide derivative having urea structure” (Santen Pharmaceutical Co., Ltd., priority 2007, dated 2011).

What was measured:
[1] = tested on: HDAC (HeLa nuclear extract); assay: Test for evaluation of HDAC inhibitory activity (HDAC Fluorimetric Assay/Drug Discovery Kit, Biomol); assay type: biochemical; conditions: final concentration of test compound 30 μM, rates of more than 100% are shown as 100%
Protocol: Using HDAC Fluorimetric Assay/Drug Discovery Kit (manufactured by Biomol), HDAC inhibitory activity of the present compounds was measured according to the protocol included with the kit. The kit contains Buffer, HeLa nuclear extract (includes HDAC), Substrate, Developer and Trichostatin A (an HDAC inhibitor).
A test compound was dissolved in dimethyl sulfoxide, whereby a 2 mg/mL solution was prepared. Then, the resulting solution was diluted with Buffer containing 5% dimethyl sulfoxide, whereby a 150 μM test compound solution was prepared.
1) To a 384-well culture plate, the test compound solution was added in an amount of 2 μL per well.
2) HeLa nuclear extract was diluted 30-fold with Buffer. The resulting solution was added in an amount of 3 μL per well and then, incubation was performed at 37° C. for 2 hours.
3) Substrate was diluted 500-fold with Buffer. […]
5) The fluorescence intensity of each well was measured using multilabel counter ARVO (manufactured by Wallac) with excitation at 360 nm and emission at 460 nm. […]
Enzyme inhibitory rate (%) was calculated using the following equation. (Enzyme Inhibitory Rate(%))=100×[1−{(Fluorescence Intensity of Test Compound Solution)−(Florescence Intensity of Blank)}/{(Florescence Intensity of Control)−(Florescence Intensity of Blank)}] […]

[2] = tested on: human trabecular meshwork cell line (TM-1 cells); assay: Effect of morphological change on trabecular meshwork cells (cell shape index, CSI); assay type: cell-based; conditions: final concentration 10 μM, 24 hours, control CSI 0.679, lower CSI indicates greater morphological change
Protocol: As a method for evaluating a cellular morphological change, an evaluation system using the cell shape index (hereinafter referred to as “CSI”) as an index has been reported in The Journal of Clinical Investigation, 103, 1141-1150 (1999). Therefore, according to the method described in the above document, an effect of morphological change of the present compounds on trabecular meshwork cells was evaluated.
A human trabecular meshwork cell line (hereinafter referred to as “TM-1 cells”) reported in Investigative Opthalmology & Visual Science, 43, 151-161 (2002) was used.
Culture medium 1: A reagent was prepared by adding fetal bovine serum (10%), L-glutamine (2 mM), amphotericin B (2.5 μg/mL), and gentamicin (25 μg/mL) to Dulbecco's Modified Eagle Medium (hereinafter referred to as “D-MEM”).
Culture medium 2: Fetal bovine serum (3%), L-glutamine (2 mM), amphotericin B (2.5 μg/mL), and gentamicin (25 μg/mL) were added to D-MEM. […]
10) Using Array Scan Vti HCS reader (manufactured by Cellomics), images of stained cells magnified with a 20-fold objective lens were captured in 80 fields (10 fields×8 wells) per test compound addition group.
11) CSI was calculated for each cell and an average value was obtained for each test compound addition group.
CSI was calculated using the following equation. […]

- Enzyme Inhibitory Rate (%) [1]: 100%
SMILES: Nc1ccccc1NC(=O)c1ccc(CN(CCCN2CCCCC2)C(=O)NCCc2ccccc2)cn1 [Compound 1-3]
- CSI [2]: 0.569
